# Data from the supplement of paper PMC11061612.
# How the values were obtained:
# Assay in all cases: combination Emax (second highest fraction inhibited in the dose matrix, 72 h); higher = more inhibition; extreme values may be limits of the assay
# 8-MG-BA (Glioblastoma) = system: 8-MG-BA (Glioblastoma)
# In short: (§1)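 Cell lines in DMEM/F12 or RPMI with 10% FBS were plated in 1536-well plates, held 24 hours at 37°C, 5% CO2, then given two-drug dose matrices for 72 hours (DMSO typically 0.2%). Viability was read by CellTiter-Glo 2.0 luminescence and scaled as inhibition from 0 (vehicle wells) to 1 (blank wells). Combination Emax is the second-highest inhibition in the matrix; Bliss excess is observed combination effect minus expected EA + EB − EA·EB, EA and EB being single-agent effects.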
# [1] = system: A3-KAW (B-Cell Non-Hodgkin's Lymphoma)
# In short: as §1
# A498 (Kidney Carcinoma) = system: A498 (Kidney Carcinoma)
# In short: as §1
# ARH-77 (Non-Cancerous) = system: ARH-77 (Non-Cancerous)
# In short: as §1
# [2] = system: BICR22 (Oral Cavity Carcinoma)
# In short: as §1
# [3] = system: COLO-320-HSR (Colorectal Carcinoma)
# In short: as §1
# [4] = system: COR-L311 (Small Cell Lung Carcinoma)
# In short: as §1
# [5] = system: ECC10 (Gastric Carcinoma)
# In short: as §1
# Hs-445 (Non-Cancerous) = system: Hs-445 (Non-Cancerous)
# In short: as §1
# IGR-37 (Melanoma) = system: IGR-37 (Melanoma)
# In short: as §1
# [6] = system: KARPAS-422 (B-Cell Non-Hodgkin's Lymphoma)
# In short: as §1
# [7] = system: MDST8 (Colorectal Carcinoma)
# In short: as §1
# [8] = system: NCI-H1693 (Lung Adenocarcinoma)
# In short: as §1
# [9] = system: NCI-H2066 (Squamous Cell Lung Carcinoma)
# In short: as §1
# [10] = system: NCI-H2141 (Small Cell Lung Carcinoma)
# In short: as §1
# NCI-H2591 (Mesothelioma) = system: NCI-H2591 (Mesothelioma)
# In short: as §1
# [11] = system: NCI-H64 (Small Cell Lung Carcinoma)
# In short: as §1
# [12] = system: PANC-10-05 (Pancreatic Carcinoma)
# In short: as §1
# [13] = system: SK-MES-1 (Squamous Cell Lung Carcinoma)
# In short: as §1
# [14] = system: TT2609-C02 (Thyroid Gland Carcinoma)
# In short: as §1
SMILES,combination Emax (8-MG-BA (Glioblastoma)),combination Emax [1],combination Emax (A498 (Kidney Carcinoma)),combination Emax (ARH-77 (Non-Cancerous)),combination Emax [2],combination Emax [3],combination Emax [4],combination Emax [5],combination Emax (Hs-445 (Non-Cancerous)),combination Emax (IGR-37 (Melanoma)),combination Emax [6],combination Emax [7],combination Emax [8],combination Emax [9],combination Emax [10],combination Emax (NCI-H2591 (Mesothelioma)),combination Emax [11],combination Emax [12],combination Emax [13],combination Emax [14]
"Cc1c2c(nn1C)CSCc1cc(n(C)n1)CSc1cc(c3ccccc3c1)OCCCc1c(C(=O)O)n(C)c3c-2c(Cl)ccc13 [AZD5991] + Cc1cc2ncnn2cc1Nc1ncc2c(n1)n(C1CCOCC1)c(=O)n2C [AZD7648] (first compound max 1 µM, 7x7, partner max 10 µM)",0.646,1,0.423,0.835,0.499,0.808,0.343,0.669,0.942,0.25,1,0.34,0.256,0.299,0.307,0.305,0.341,0.404,0.223,0.205
"CN(CCO)CC[C@H](CSc1ccccc1)Nc1ccc(S(=O)(=O)NC(=O)c2ccc(N3CCC([C@@H](O)c4ccccc4-c4ccc(Cl)cc4)CC3)cc2)cc1S(=O)(=O)C(F)(F)F [AZD4320] + C=CCn1c(=O)c2cnc(Nc3ccc(N4CCN(C)CC4)cc3)nc2n1-c1cccc(C(C)(C)O)n1 [AZD1775] (first compound max 1 µM, partner max 1 µM)",0.785,0.892,0.628,1,0.882,0.632,1,1,1,0.762,0.978,0.992,0.355,0.646,1,0.159,1,0.481,0.797,0.722
"CS(=O)(=O)CCNCc1ccc(-c2ccc3ncnc(Nc4ccc(OCc5cccc(F)c5)c(Cl)c4)c3c2)o1 [Lapatinib] + C[C@@H](Oc1cc(-c2cnn(C3CCNCC3)c2)cnc1N)c1c(Cl)ccc(F)c1Cl [Crizotinib] (first compound max 10 µM, 7x7, partner max 10 µM)",0.998,0.968,0.926,0.942,0.933,0.894,0.924,0.97,0.783,0.906,0.96,0.738,0.883,0.58,0.795,0.572,0.823,0.675,0.966,0.476
"Cc1c2c(nn1C)CSCc1cc(n(C)n1)CSc1cc(c3ccccc3c1)OCCCc1c(C(=O)O)n(C)c3c-2c(Cl)ccc13 [AZD5991] + C[C@@H]1COCCN1C2=NC(=NC(=C2)C3(CC3)[S@](=N)(=O)C)C4=C5C=CNC5=NC=C4 [AZD6738] (first compound max 1 µM, 7x7, partner max 10 µM)",0.961,1,0.621,0.976,0.846,0.97,0.752,0.766,1,0.848,1,0.78,0.432,0.359,0.628,0.392,0.905,0.488,0.785,0.392
"COc1cc2c(cc1OCCCCCOc1cc3c(cc1OC)C(=O)N1C=C(C)C[C@H]1C=N3)N=C[C@@H]1CC(C)=CN1C2=O [SG3199] + O=C(c1cc(Cc2n[nH]c(=O)c3ccccc23)ccc1F)N1CCN(C(=O)C2CC2)CC1 [Olaparib] (first compound max 0.001 µM, 7x7, partner max 10 µM)",0.267,0.595,0.173,0.221,0.124,0.061,0.515,0.102,0.086,0.0632,0.258,0.138,0.086,0.108,0.197,0.118,0.0693,0.116,0.103,0.166
"CN(C)CCCOc1ccc(-c2ccc3ncc4c(c3c2)n(C2CCOCC2)c(=O)n4C)cn1 [AZD0156] + C[C@@H]1COCCN1C2=NC(=NC(=C2)C3(CC3)[S@](=N)(=O)C)C4=C5C=CNC5=NC=C4 [AZD6738] (first compound max 1 µM, 7x7, partner max 10 µM)",0.834,0.995,0.703,0.975,0.724,0.652,0.408,0.332,0.868,0.781,0.653,0.919,0.192,0.35,0.462,0.293,0.732,0.41,0.73,0.144
"Cc1c2c(nn1C)CSCc1cc(n(C)n1)CSc1cc(c3ccccc3c1)OCCCc1c(C(=O)O)n(C)c3c-2c(Cl)ccc13 [AZD5991] + CCN(CCO)CCCOc1ccc2c(Nc3cc(CC(=O)Nc4cccc(F)c4)[nH]n3)ncnc2c1 [AZD2811] (first compound max 1 µM, 7x7, partner max 1 µM)",0.836,1,0.352,0.904,0.675,0.827,0.906,0.957,0.968,0.24,0.981,0.362,0.211,0.304,0.428,0.265,0.788,0.303,0.408,0.456
"NC1(C(=O)N[C@@H](CCO)c2ccc(Cl)cc2)CCN(c2ncnc3[nH]ccc23)CC1 [Capivasertib] + CC(=O)c1c(C)c2cnc(Nc3ccc(N4CCNCC4)cn3)nc2n(C2CCCC2)c1=O [Palbociclib] (first compound max 10 µM, 7x7, partner max 10 µM)",0.597,0.846,0.629,0.705,0.329,0.263,0.68,0.506,0.613,0.396,0.771,0.656,0.485,0.507,0.299,0.364,0.332,0.49,0.5,0.376
"COc1cccc(OCCCN)c1-c1cc(Nc2cnc(C#N)cn2)n[nH]1 [Prexasertib] + C=CCn1c(=O)c2cnc(Nc3ccc(N4CCN(C)CC4)cc3)nc2n1-c1cccc(C(C)(C)O)n1 [AZD1775] (first compound max 1 µM, partner max 1 µM)",0.977,1,0.598,0.996,0.813,0.86,0.861,0.904,0.947,0.879,0.985,0.954,0.461,0.621,0.588,0.472,0.925,0.595,0.777,0.449
"CN(CCO)CC[C@H](CSc1ccccc1)Nc1ccc(S(=O)(=O)NC(=O)c2ccc(N3CCC([C@@H](O)c4ccccc4-c4ccc(Cl)cc4)CC3)cc2)cc1S(=O)(=O)C(F)(F)F [AZD4320] + Cc1cc2ncnn2cc1Nc1ncc2c(n1)n(C1CCOCC1)c(=O)n2C [AZD7648] (first compound max 1 µM, 7x7, partner max 10 µM)",0.168,0.344,0.37,0.841,0.594,0.0909,1,1,0.746,0.18,–,0.821,0.174,0.885,0.829,0.188,0.964,0.311,0.127,0.182
"CC(=O)c1c(C)c2cnc(Nc3ccc(N4CCNCC4)cn3)nc2n(C2CCCC2)c1=O [Palbociclib] + CN(CC[C@H](CSC1=CC=CC=C1)NC2=C(C=C(C=C2)S(=O)(=O)NC(=O)C3=CC=C(C=C3)N4CCC(CC4)[C@H](C5=CC=CC=C5C6=CC=C(C=C6)Cl)O)S(=O)(=O)C(F)(F)F)CCO [AZD4320] (first compound max 10 µM, 7x7, partner max 1 µM)",0.337,0.867,0.658,0.899,–,–,1,–,0.95,–,–,0.781,0.803,–,0.883,0.249,–,–,0.289,0.29
"COc1nnc2ccc(N3CCC(c4ccc(OCCN5CCN(C)C(=O)[C@H]5C)cc4)CC3)nn12 [AZD5153] + CN(CC[C@H](CSC1=CC=CC=C1)NC2=C(C=C(C=C2)S(=O)(=O)NC(=O)C3=CC=C(C=C3)N4CCC(CC4)[C@H](C5=CC=CC=C5C6=CC=C(C=C6)Cl)O)S(=O)(=O)C(F)(F)F)CCO [AZD4320] (first compound max 1 µM, 7x7, partner max 1 µM)",0.772,1,0.66,0.965,–,–,1,–,0.889,–,–,0.918,0.628,–,0.941,0.395,–,–,0.631,0.424
